ChEMBL document CHEMBL4706534, “1,2,3-Triazole-containing hybrids with potential antibacterial activity against methicillin-resistant Staphylococcus aureus (MRSA)” (Eur J Med Chem, 2020)
Converted amounts (≈) assume the structure as drawn.

Tests used:
[1] = system: Staphylococcus aureus; test: Antibacterial activity against methicillin-resistant Staphylococcus aureus; type: functional
[2] = system: Staphylococcus epidermidis; test: Antibacterial activity against methicillin-resistant Staphylococcus epidermidis; type: functional
[3] = system: Staphylococcus aureus; test: Antibacterial activity against Staphylococcus aureus C463 incubated for 18 hrs by CLSI-based two fold agar dilution method; type: functional
[4] = system: Staphylococcus aureus; test: Potentiation of oxacillin-induced antibacterial activity against methicillin-resistant Staphylococcus aureus ATCC BAA-44 assessed as reduction in oxacillin MIC preincubated for 30 mins followed by oxacillin addition and measured after 16 hrs by broth microdilution method; type: functional; conditions: time 16.5 hrs
[5] = system: Staphylococcus aureus; test: Antibiofilm activity against methicillin-resistant Staphylococcus aureus ATCC BAA-44 assessed as disruption of preformed biofilms incubated for 24 hrs by CV-staining based assay; type: functional, organism-based; conditions: ATCC BAA-44, 24 h
[6] = system: Staphylococcus aureus; test: Antibiofilm activity against methicillin-resistant Staphylococcus aureus ATCC BAA-44 incubated for 24 hrs by crystal violet-staining based assay; type: functional, organism-based; conditions: ATCC BAA-44, 24 h
[7] = Cytotoxicity against CHO cells; type: cell-based, Cricetulus griseus; conditions: chinese hamster
[8] = system: Enterococcus faecalis; test: Antibacterial activity against Enterococcus faecalis; type: functional
[9] = system: Proteus vulgaris; test: Antibacterial activity against Proteus vulgaris; type: functional
[10] = system: Enterobacter cloacae; test: Antibacterial activity against Enterobacter cloacae; type: functional
[11] = system: Escherichia coli; test: Antibacterial activity against Escherichia coli; type: functional
[12] = system: Staphylococcus aureus; test: Antibacterial activity against methicillin-sensitive Staphylococcus aureus; type: functional
[13] = system: Staphylococcus epidermidis; test: Antibacterial activity against methicillin-sensitive Staphylococcus epidermidis; type: functional
[14] = system: Enterococcus faecium; test: Antibacterial activity against Enterococcus faecium; type: functional
[15] = system: Providencia rettgeri; test: Antibacterial activity against Providencia rettgeri; type: functional
[16] = system: Klebsiella pneumoniae; test: Antibacterial activity against Klebsiella pneumoniae; type: functional
[17] = system: Klebsiella aerogenes; test: Antibacterial activity against Enterobacter aerogenes; type: functional
[18] = system: Staphylococcus aureus; test: Antibacterial activity against methicillin-resistant Staphylococcus aureus ATCC 33591 measured after 18 hrs by CLSI-based broth microdilution method; type: functional
[19] = system: Staphylococcus aureus; test: Antibacterial activity against Staphylococcus aureus NRS127 incubated for 18 hrs by CLSI-based two fold agar dilution method; type: functional
[20] = system: Staphylococcus aureus; test: Antibacterial activity against Staphylococcus aureus NRS271 incubated for 18 hrs by CLSI-based two fold agar dilution method; type: functional
[21] = system: Staphylococcus aureus; test: Antibacterial activity against Staphylococcus aureus NRS121 incubated for 18 hrs by CLSI-based two fold agar dilution method; type: functional
[22] = system: Staphylococcus aureus; test: Antibacterial activity against Staphylococcus aureus NRS119 incubated for 18 hrs by CLSI-based two fold agar dilution method; type: functional
[23] = system: Staphylococcus aureus; test: Resistance index, ratio of MIC for antibacterial activity against Staphylococcus aureus ATCC 43300 incubated for 16 to 18 hrs by CLSI based assay to MIC for antibacterial activity against Staphylococcus aureus DSM 20231 incubated for 16 to 18 hrs by CLSI based assay; type: functional; conditions: time 16-18 hrs
[24] = system: Staphylococcus aureus; test: Antibacterial activity against Staphylococcus aureus DSM 20231 incubated for 16 to 18 hrs by CLSI based assay; type: functional; conditions: time 16-18 hrs
[25] = system: Staphylococcus aureus; test: Antibacterial activity against methicillin-resistant Staphylococcus aureus ATCC 43300 incubated for 16 to 18 hrs by CLSI based assay; type: functional; conditions: time 16-18 hrs
[26] = system: Staphylococcus aureus; test: Antibacterial activity against Staphylococcus aureus ATCC 29213; type: functional, organism-based
[27] = system: Staphylococcus aureus; test: Antibacterial activity against Methicillin-resistant Staphylococcus aureus ATCC 33591; type: functional, organism-based
[28] = system: Staphylococcus aureus; test: microbe, parasite or virus in culture; conditions: 725
[29] = system: Staphylococcus aureus; test: microbe, parasite or virus in culture; conditions: 936

Question: Which results are given for `CC[C@@H](C(=O)[C@@H](C)[C@@H](O)[C@H](C)[C@@H]1O[C@@H]([C@@H](CC)C(=O)NCc2cn([C@H]3C[C@H](n4cc(F)c(=O)[nH]c4=O)O[C@@H]3CO)nn2)CC[C@@H]1C)[C@H]1O[C@]2(C=C[C@@H](O)[C@]3(CC[C@@](C)([C@H]4CC[C@](O)(CC)[C@H](C)O4)O3)O2)[C@H](C)C[C@@H]1C`?
Answer: MIC [1]: 32 µg/mL (≈ 30.2 µM); MIC [2]: 32 µg/mL (≈ 30.2 µM)

Question: Which MIC [3] does the source give for `O=C1CC2CN(c3ccc(N4C[C@H](Cn5ccnn5)OC4=O)cc3F)CC2C1` (some centres not stated) here?
Answer: 3.12 µg/mL (≈ 8.1 µM)

Question: What does the source list for `CCCCCCc1ccc(C(=O)NCCn2cc(CCCCCc3c[nH]c(N)n3)nn2)cc1`?
Answer: fold change (FC) [4]: 64; EC50 [5]: 900 nM; IC50 [6]: 700 nM

Question: With `CO/N=C1\C(=O)N(Cc2cn(CC(=O)N3CCC[C@H]4CN(c5c(F)cc6c(=O)c(C(=O)O)cn(C7CC7)c6c5OC)C[C@H]43)nn2)c2ccc(C)cc21` as the compound, how does the CC50 [7] read?
Answer: 32 µg/mL (≈ 44.9 µM)

Question: And the MIC [8]?
Answer: ≤ 0.03 µg/mL

Question: And the MIC [9]?
Answer: ≤ 0.03 µg/mL

Question: What about the MIC [10] of the same compound?
Answer: ≤ 0.03 µg/mL

Question: What about the MIC [11] of the same compound?
Answer: ≤ 0.03 µg/mL

Question: What about the MIC [12] of the same compound?
Answer: ≤ 0.03 µg/mL

Question: And the MIC [13]?
Answer: ≤ 0.03 µg/mL

Question: And the MIC [1]?
Answer: 1 µg/mL (≈ 1.4 µM)

Question: And the MIC [14]?
Answer: ≤ 0.03 µg/mL

Question: What about the MIC [15] of the same compound?
Answer: ≤ 0.03 µg/mL

Question: And the MIC [16]?
Answer: ≤ 0.03 µg/mL

Question: And the MIC [17]?
Answer: ≤ 0.03 µg/mL

Question: With `COc1c(N2C[C@@H]3CCCN(C(=O)Cn4cc(CN5C(=O)C(=O)c6ccccc65)nn4)[C@@H]3C2)c(F)cc2c(=O)c(C(=O)O)cn(C3CC3)c12` as the compound, how does the CC50 [7] read?
Answer: 64 µg/mL (≈ 95.6 µM)

Question: What about the MIC [8] of the same compound?
Answer: ≤ 0.03 µg/mL

Question: And the MIC [9]?
Answer: ≤ 0.03 µg/mL

Question: What about the MIC [10] of the same compound?
Answer: ≤ 0.03 µg/mL

Question: What about the MIC [11] of the same compound?
Answer: ≤ 0.03 µg/mL

Question: What about the MIC [12] of the same compound?
Answer: ≤ 0.03 µg/mL

Question: What about the MIC [13] of the same compound?
Answer: ≤ 0.03 µg/mL

Question: And the MIC [1]?
Answer: 1 µg/mL (≈ 1.49 µM)

Question: And the MIC [14]?
Answer: ≤ 0.03 µg/mL

Question: And the MIC [15]?
Answer: ≤ 0.03 µg/mL

Question: And the MIC [16]?
Answer: ≤ 0.03 µg/mL

Question: And the MIC [17]?
Answer: ≤ 0.03 µg/mL

Question: With `CC(=O)NC[C@H]1CN(c2ccc(N3CCN(C(=O)c4cn(C[C@H]5O[C@@H](n6cc(C)c(=O)[nH]c6=O)[C@H](O)[C@@H]5O)nn4)CC3)c(F)c2)C(=O)O1` as the compound, how does the MIC [18] read?
Answer: 64 µg/mL (≈ 95.3 µM)

Question: Which MIC [19] does the source give for `CC(=O)NC[C@H]1CN(c2ccc(N3C[C@H]4CC(n5ccnn5)C[C@H]4C3)c(F)c2)C(=O)O1` (some centres not stated) here?
Answer: 16 µg/mL (≈ 37.3 µM)

Question: What about the MIC [20] of the same compound?
Answer: 16 µg/mL (≈ 37.3 µM)

Question: What about the MIC [21] of the same compound?
Answer: 16 µg/mL (≈ 37.3 µM)

Question: And the MIC [22]?
Answer: 16 µg/mL (≈ 37.3 µM)

Question: Which Ratio [23] does the source give for `N=C(N)NCCC[C@H](NC(=O)[C@H](Cc1c[nH]c2ccccc12)NC(=O)[C@@H](N)CCCNC(=N)N)C(=O)N[C@@H](Cc1c[nH]c2ccccc12)C(=O)N[C@@H](CCCCn1cc(COc2cc(OCc3cn(CCCC[C@H](NC(=O)[C@H](Cc4c[nH]c5ccccc45)NC(=O)[C@H](CCCNC(=N)N)NC(=O)[C@H](Cc4c[nH]c5ccccc45)NC(=O)[C@@H](N)CCCNC(=N)N)C(N)=O)nn3)cc(OCc3cn(CCCC[C@H](NC(=O)[C@H](Cc4c[nH]c5ccccc45)NC(=O)[C@H](CCCNC(=N)N)NC(=O)[C@H](Cc4c[nH]c5ccccc45)NC(=O)[C@@H](N)CCCNC(=N)N)C(N)=O)nn3)c2)nn1)C(N)=O` here?
Answer: 0.5

Question: And the MIC [24]?
Answer: 5.4 µM (≈ 15.2 µg/mL)

Question: What about the MIC [25] of the same compound?
Answer: 2.7 µM (≈ 7.58 µg/mL)

Question: For `COc1c(Cn2cc(-c3nnc(-c4ccccc4)o3)nn2)c(OC)c(OC)c(OC)c1OC`, which IC50 [26] is on record?
Answer: 7 µg/mL (≈ 15.4 µM)

Question: What about the IC50 [27] of the same compound?
Answer: 6.4 µg/mL (≈ 14.1 µM)

Question: Which results are given for `Cc1nnc(SCC2=C(C(=O)O)N3C(=O)[C@@H](NC(=O)Cn4cnnn4)[C@H]3SC2)s1` [CEFAZOLIN SODIUM]?
Answer: MIC [28]: 32 µM; MIC [29]: 8 µM
